Source: US4143010A, “High retention wood preservative composition” (Canadian Patents and Development Limited, priority 1978, dated 1979)
≈ marks a conversion by molar mass, not a printed value. Read-outs that look alike come from different tables or passages of the source.

Key:
Poria monticola [1] = assay: Soil-block culture decay test after leaching; assay type: cell-based; conditions: leached samples
Source text: 5% (w/cv) D18 in chloroform and
5% (w/v) D18 with 1.4% wax and 1% polystyrene in chloroform solution.
After solvent removal by slow air drying and a short period of oven drying both series of samples were exposed to leaching in water under the same conditions (time of exposure, temperature and volume of water for leaching). […] After leaching the samples were further tested for toxicity against a wood-decaying fungus in a modified standard method of testing wood preservatives by laboratory soil-block cultures. Five untreated controls and 5 samples from each preservative series were put into soil jars on wooden feeder blocks inoculated with a standard test fungus Poria monticola. […] Jars were located in an incubation room maintained at 80° F. and 70% R.H. and were opened one by one in five consecutive time intervals, after 25 -- 32 -- 39 -- 46 and 65 days incubation. Wood specimens taken from the jars were oven dried and the weight loss due to decay calculated.

Leaching resistance test = assay type: physicochemical; conditions: for increase of leaching resistance due to additives: with additives versus without
Method: Solution I 5% w/v D-18 in chloroform
Solution II 5% w/v D-20 in chloroform
1.0% w/v polystyrene in chloroform
Solution IV same as III but with 5% w/v D-20.
uptake of preservative was calculated from the weight increase. Chloroform solvent was removed from the samples by air drying followed by drying in the oven at 105° C. for 4 hours. Each sample was leached with a standard volume of distilled water at room temperature. Every two hours the water surrounding each sample was removed for spectrophotometric measurement and was replaced by another standard volume of fresh distilled water. Total leaching time was 140 hours. The concentration of D18 and D20 in the leach water was determined by comparing specific absorbance in UV light with the absorbance of known concentrations of D18 and D20 in water. The leached amount of D18 and D20 was recalculated as a percent of the original amount impregnated into the samples before leaching.

Poria monticola [2] = assay: Effectiveness against decay fungi on spruce sections; assay type: cell-based, Poria monticola (A384); conditions: for Average Percentage of Wood Area Colonized: 19 days at 27° C
Method: (§1) The fungicidal activity of these compositions was determined in an accelerated experiment with the wood-rotting basidiomycetes Lenzites trabea (S644), Coniophora puteana (A302) and Poria monticola (A384) as test fungi. Small cross-the-grain sections of spruce wood (Picea glauca, a refractory species) were cut 40 microns thick on a microtome. All treatment specimens (0.5 × 0.5 inch) were cut from the same block of wood and were therefore homogeneous in nature. Wood specimens were treated to different retention levels with the active ingredients D18 or D20 with or without the additives. Two of each treatment series were placed on sterilized glass microscopic cover slips (22 mm^2) which were then deposited upon cultures of actively growing decay fungi in Petri dishes. Cultures were grown on a 2% malt extract, 2% agar medium. Two untreated specimens were included in each culture dish as controls. Treatment series were 0.1, 0.5 and 1.75 pcf. Incubation was for 19 days at 27° C. Each test was done in duplicate. Evaluation of the treated samples was made using a stereoscopic microscope (× 10.5 magnification). The percentage of the surface area of each specimen colonized by the test fungus was determined. The smaller the colonized surface area on each wood specimen, the more efficient the preservative composition used for specimen treatment.

[3] = Test of solubility of oxathiins and additives in various solvents; assay type: physicochemical
Source text: Table 5 is a solubility chart summarizing a list of organic solvents solubilizing oxathiins and the two additives which can be applied in the same solution.

Lenzites trabea [4] = conditions: wood preservative threshold; cited from earlier work
Coniophora puteana = assay: Effectiveness against decay fungi on spruce sections; assay type: cell-based, Coniophora puteana (A302); conditions: 19 days at 27° C
Method: as §1

Lenzites trabea [5] = assay: as above; assay type: cell-based, Lenzites trabea (S644); conditions: for Average Percentage of Wood Area Colonized: 19 days at 27° C
Method: as §1

[6] = Immobilization of PCP in spruce microsections, vacuum exposure and microscopy; assay type: physicochemical
Source text: From both samples, microsections were cut from the wood tissues, approximately 0.35 -0.37 inch from the surface in the radial direction, i.e. within the area, where the PCP was positively detected by previous staining. Numerous microscopic sections (transverse) were made from both samples (A and B) separately. From each of both groups of microsections, typical sections were again microscopically stained with a Silver-Copper complex (which is the basis of the "Penta-Check") to detect again PCP in the microsections. Other typical unstained microsections were mounted into microscopic slides and without any staining examined microscopically. On the viewed microsections of treated wood typical spots were selected where the cell obviously contained significant deposits of PCP, and photographed, at the same magnification. Photographed microsections from sample A and B were then carefully removed from the slides, gently dried off by a touch of absorbent paper at the corner of the microsections, and transferred into a vacuum desiccator by a micromanipulator. The desiccator was then closed and very slowly evacuated. When the vacuum reached 29.5 inch Hg, the desiccator was sealed and the microsections left for 7 days ([…]). Then the desiccator, still at 27 inch vacuum, was slowly filled with air, opened and the microsections transferred onto glass slides and mounted for microscopic examination. This exposure under the same vacuum conditions (29.5 -27 inch Hg) for 7 days gave accelerated sublimation of PCP. The accelerated vacuum test is considered as an accurate simulation of the effect of ordinary atmosphere for an extended time. The microscopic slides were carefully examined, the same spot of each microsection was found (as photographed before vacuum exposure) and rephotographed (at the same magnification) for comparison.
Two pairs of photomicrographs are shown as FIGS. 1 (a ) and 1 (b ), and as FIGS. 2 (a ) and 2 (b ), being typical of observations of as many as 50 microsections. […]

[7] = Accelerated sublimation test of deposits on glass under vacuum; assay type: physicochemical; conditions: room temperature
Source text: In order to determine the influence of chemical components in the preservative composition on loss of preservative (PCP) under accelerated sublimation conditions, three solutions have been prepared, separately, in carbon tetrachloride as a solvent (in percent w/v).
I. solution: PCP (3.5%) as a preservative.
Ii. solution; PCP (3.5%) and stearic acid (3.5%) as the hydrophobic agent.
III. Solution: PCP (3.5%) stearic acid (3.5%) and polystyrene (0.7%) as the organic polymer.
The same volume of each solution (0.07 ccm/sq.in.) has been poured on the surface of glass template and the solent evaporated at room temperature leaving solid deposits of each sample. Then these deposits of the 3 different preservative compositions (I--II--III), in which the amount of preservative (PCP) was the same, were exposed to vacuum at room temperature in order to accelerate the loss of components. The loss of weight of each single deposit was checked periodically and is expressed in FIG. 1 in percent of original weight of preservative (PCP).

[8] = Hydrophobicity (contact angle of water drops) of treated red pine; assay type: physicochemical; conditions: contact angle 180°
Method: The same solutions of preservative compositions (I--II--III), as in Example I have been used for impregnation of red pine wood samples in order to determine the effect on hydrophobicity of wood. After the samples of wood have been fully saturated by solutions I--II--III, the solvent was then evaporated at room temperature during the next 24hours, leaving solid deposits of the components in the wood. Measurements of contact angles of the surface of water drops on pertinent wood samples were made to show the relative hydrophobicity. The sooner the water soaks in the surface of wood (contact angle 180°) the lower the hydrophobicity of wood and vice versa.

[9] = retention 0.1 pcf, * = mycelia extended over the top but did not colonize all substrate underneath
[10] = water, read-out: Solubility in water

CC1=C(C(=O)Nc2ccccc2)SCCO1 [Solution D18, 2,3-dihydro-5-carboxanilido-6-methyl-1,4-oxathiin]
Cumulative Percent Weight Loss Due to Decay (Poria monticola [1]; 25 days of incubation): 2%
Cumulative Percent Weight Loss Due to Decay (Poria monticola [1]; 32 days of incubation): 4%
Cumulative Percent Weight Loss Due to Decay (Poria monticola [1]; 39 days of incubation): 6%
Cumulative Percent Weight Loss Due to Decay (Poria monticola [1]; 46 days of incubation): 10%
Cumulative Percent Weight Loss Due to Decay (Poria monticola [1]; 65 days of incubation): 21%
Cumulative Percent Preservative Leached from Wood (Leaching resistance test; 10 hours of exposure): 14%
Cumulative Percent Preservative Leached from Wood (Leaching resistance test; 30 hours of exposure): 27%
Cumulative Percent Preservative Leached from Wood (Leaching resistance test; 70 hours of exposure): 43%
Cumulative Percent Preservative Leached from Wood (Leaching resistance test; 140 hours of exposure): 56%
increase of leaching resistance due to additives (Leaching resistance test): 51-57%
Average Percentage of Wood Area Colonized (Poria monticola [2]; [9]): 40 Percentage
Average Percentage of Wood Area Colonized (Poria monticola [2]; retention 0.5 pcf): 0 Percentage
Average Percentage of Wood Area Colonized (Poria monticola [2]; retention 1.75 pcf): 0 Percentage
solubility [3, 10]: 170 µg/mL (≈ 722 µM)
known threshold level (Lenzites trabea [4]): 1.1 mg/mL
Average Percentage of Wood Area Colonized (Coniophora puteana; retention 0.1 pcf): 30 Percentage
Average Percentage of Wood Area Colonized (Coniophora puteana; retention 0.5 pcf): 5 Percentage
Average Percentage of Wood Area Colonized (Coniophora puteana; retention 1.75 pcf): 5 Percentage
Average Percentage of Wood Area Colonized (Lenzites trabea [5]; [9]): 25 Percentage
Average Percentage of Wood Area Colonized (Lenzites trabea [5]; retention 0.5 pcf): 0 Percentage
Average Percentage of Wood Area Colonized (Lenzites trabea [5]; retention 1.75 pcf): 0 Percentage

CC1=C(C(=O)Nc2ccccc2)S(=O)(=O)CCO1 [Solution D20]
Cumulative Percent Preservative Leached from Wood (Leaching resistance test; 10 hours of exposure): 10%
Cumulative Percent Preservative Leached from Wood (Leaching resistance test; 30 hours of exposure): 38%
Cumulative Percent Preservative Leached from Wood (Leaching resistance test; 70 hours of exposure): 54%
Cumulative Percent Preservative Leached from Wood (Leaching resistance test; 140 hours of exposure): 61%
increase of leaching resistance due to additives (Leaching resistance test): 17-27%
effect of additives on effectiveness (Poria monticola [2]): increase in the effectiveness of D20 due to the additives
Average Percentage of Wood Area Colonized (Poria monticola [2]; [9]): 50 Percentage
Average Percentage of Wood Area Colonized (Poria monticola [2]; retention 0.5 pcf): 15 Percentage
Average Percentage of Wood Area Colonized (Poria monticola [2]; retention 1.75 pcf): 10 Percentage
solubility ([3]; Carbon tetrachloride): - (+)
solubility ([3]; Perchloroethylene): - (+)
solubility [3, 10]: 1000 µg/mL (≈ 3740 µM)
Average Percentage of Wood Area Colonized (Coniophora puteana; retention 0.1 pcf): 40 Percentage
Average Percentage of Wood Area Colonized (Coniophora puteana; retention 0.5 pcf): 10 Percentage
Average Percentage of Wood Area Colonized (Coniophora puteana; retention 1.75 pcf): 10 Percentage
effect of additives on effectiveness (Lenzites trabea [5]): increase in the effectiveness of D20 due to the additives
Average Percentage of Wood Area Colonized (Lenzites trabea [5]; [9]): 50 Percentage
Average Percentage of Wood Area Colonized (Lenzites trabea [5]; retention 0.5 pcf): 0 Percentage
Average Percentage of Wood Area Colonized (Lenzites trabea [5]; retention 1.75 pcf): 0 Percentage

Oc1c(Cl)c(Cl)c(Cl)c(Cl)c1Cl [PCP, pentachlorophenol]
PCP retention after vacuum exposure ([6]; 164 hours, 29.5-27 inch Hg): had disappeared after vacuum exposure
water repellency of microsections ([6]; microscopic sections): not highly water repellent
distribution of PCP in the cells ([6]; microscopic staining): deposited on the cell walls in individual spots
loss of PCP ([7]; deposit on glass under vacuum, % of original weight of PCP (FIG. 1)): 99%
time for water to soak into wood surface [8]: ≤ 40 s

CCCCCCCCCCCCCCCCCC(=O)O [stearic acid]
reduction of PCP sublimation compared to the control ([7]; vacuum, control = PCP alone): 34%
